Assay results from US8802597B2, “Herbicidal pyrimidines” (E I du Pont de Nemours and Company, priority 2003, dated 2014).

Tests used:
Assay type in all cases: in vivo
[1] = system: sugarcane (Saccharum officinarum); assay: Test G sugarcane pre/postemergence; details: Postemergence, scale 0 to 100
Text: Also at a different time, seed pieces (nodes) of sugarcane (Saccharum officinarum) were planted and treated preemergence and/or postemergence with some of the test chemicals formulated in the same manner. Treated plants and controls were maintained in a greenhouse for 14 days, after which time the treated plants were compared to controls and visually evaluated.
(§1) Plant response ratings, summarized in Table G, are based on a scale of 0 to 100 where 0 is no effect and 100 is complete control. A dash (-) response means no test result.

[2] = system: Canada horseweed (Conyza canadensis); assay: Test G pre/postemergence
Procedure, shortened: (§2)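 Greenhouse pre/postemergence screen with surfactant-containing solvent formulation; postemergence plants were 1- to 4-leaf stage. Percent control (0–100) was judged by eye against controls after 12–21 days.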

[3] = system: wheat (TRZAW; Triticum aestivum); assay: Test K postemergence; details: 15 days
Procedure: (§3) Seeds of plant species selected from sulfonylurea herbicide-susceptible (SU-susceptible) and sulfonylurea herbicide-resistant (SU-resistant) catchweed bedstraw (GALAP; Galium aparine) and wheat (TRZAW; Triticum aestivum) were treated with postemergence applications of test chemicals formulated in a non-phytotoxic solvent mixture which included a surfactant. Plants were treated at the 2-3 leaf stage and 2 whorl stage for wheat and catchweed bedstraw, respectively. Treated plants and controls were maintained in a controlled growth environment for 15 days after which time all species were compared to controls and visually evaluated. Plant response ratings, summarized in Table K, are based on a scale of 0 to 100 where 0 is no effect and 100 is complete control. A dash (-) response means no test result.

[4] = system: sulfonylurea herbicide-susceptible (SU-susceptible) catchweed bedstraw (GALAP; Galium aparine); assay: Test K postemergence; details: 15 days
Procedure: as §3

[5] = system: sulfonylurea herbicide-resistant (SU-resistant) catchweed bedstraw (GALAP; Galium aparine); assay: Test K postemergence; details: 15 days
Procedure: as §3

[6] = system: Russian thistle (Salsola kali); assay: Test G pre/postemergence
Procedure, shortened: as §2

[7] = system: common groundsel (Senecio vulgaris); assay: Test G pre/postemergence
Procedure, shortened: as §2

[8] = system: olive (Olea europaea) trees; assay: Test G post-directed application; details: 900 g ai/ha, scale 0 to 100
Procedure: (§4) At a different time, established container-grown grape (Vitus vinifera) vines, and olive (Olea europaea) and orange (Citrus sinensis) trees were treated with some of the test chemicals formulated in the same manner and applied to the soil surface and the lower 5 cm of the plant vines or trunks (post-directed application). Plants ranged in height from 30 to 100 cm. The applications were made using a hand sprayer delivering a volume of 990 L/ha. Treated plants and controls were maintained in a greenhouse for 28 days, after which time the treated plants were compared to controls and visually evaluated.
as §1

[9] = system: orange (Citrus sinensis) trees; assay: Test G post-directed application; details: 1500 g ai/ha, scale 0 to 100
Procedure: as §4, §1

[10] = system: grape (Vitus vinifera) vines; assay: Test G post-directed application; details: 1500 g ai/ha, scale 0 to 100
Procedure: as §4, §1

[11] = Preemergence, 62 g ai/ha, scale 0-100
[12] = Preemergence, 125 g ai/ha, scale 0-100
[13] = Preemergence, 250 g ai/ha, scale 0-100
[14] = Preemergence, 500 g ai/ha, scale 0 to 100
[15] = Postemergence, 250 g ai/ha, scale 0 to 100
[16] = Postemergence, 16 g ai/ha, scale 0 to 100
[17] = Postemergence, 31 g ai/ha, scale 0 to 100
[18] = Postemergence, 62 g ai/ha, scale 0 to 100
[19] = Postemergence, 125 g ai/ha, scale 0 to 100
[20] = Preemergence, 16 g ai/ha, scale 0-100
[21] = Preemergence, 31 g ai/ha, scale 0-100
[22] = Postemergence, 8 g ai/ha, scale 0 to 100
[23] = Preemergence, 8 g ai/ha, scale 0-100

Structure (SMILES): COC(=O)c1nc(C2CC2)nc(N)c1Cl [Compound 9, methyl 6-amino-5-chloro-2-cyclopropyl-4-pyrimidinecarboxylate]
- Plant response rating, Sugarcane ([1]; 250 g ai/ha): 7
- Plant response rating, Sugarcane ([1]; 500 g ai/ha): 17
- Plant response rating, Sugarcane ([1]; 31 g ai/ha): 0
- Plant response rating, Sugarcane ([1]; 62 g ai/ha): 0
- Plant response rating, Sugarcane ([1]; 125 g ai/ha): 0
- Plant response rating, Horseweed [2, 11]: 100
- Plant response rating, Horseweed [2, 12]: 100
- Plant response rating, Horseweed [2, 13]: 100
- Plant response rating, Horseweed [2, 14]: 100
- Plant response rating (0 to 100 scale) ([3]; 4 g a.i./ha): 0
- Plant response rating (0 to 100 scale) ([3]; 8 g a.i./ha): 20
- Plant response rating (0 to 100 scale) ([3]; 16 g a.i./ha): 25
- Plant response rating (0 to 100 scale) ([3]; 31 g a.i./ha): 38
- Plant response rating (0 to 100 scale) ([3]; 62 g a.i./ha): 38
- Plant response rating (0 to 100 scale) ([3]; 125 g a.i./ha): 40
- Plant response rating (0 to 100 scale) ([4]; 4 g a.i./ha): 75
- Plant response rating (0 to 100 scale) ([4]; 8 g a.i./ha): 100
- Plant response rating (0 to 100 scale) ([4]; 16 g a.i./ha): 100
- Plant response rating (0 to 100 scale) ([4]; 31 g a.i./ha): 100
- Plant response rating (0 to 100 scale) ([4]; 62 g a.i./ha): 100
- Plant response rating (0 to 100 scale) ([4]; 125 g a.i./ha): 100
- Plant response rating (0 to 100 scale) ([5]; 4 g a.i./ha): 100
- Plant response rating (0 to 100 scale) ([5]; 8 g a.i./ha): 100
- Plant response rating (0 to 100 scale) ([5]; 16 g a.i./ha): 100
- Plant response rating (0 to 100 scale) ([5]; 31 g a.i./ha): 100
- Plant response rating (0 to 100 scale) ([5]; 62 g a.i./ha): 100
- Plant response rating (0 to 100 scale) ([5]; 125 g a.i./ha): 100

Structure (SMILES): Nc1nc(C2CC2)nc(C(=O)OCc2ccccc2)c1Br [Compound 22, phenylmethyl 6-amino-5-bromo-2-cyclopropyl-4-pyrimidinecarboxylate]
- Plant response rating, Russian Thistle [6, 15]: 100
- Plant response rating, Russian Thistle [6, 16]: 95
- Plant response rating, Russian Thistle [6, 17]: 100
- Plant response rating, Russian Thistle [6, 18]: 100
- Plant response rating, Russian Thistle [6, 19]: 100
- Plant response rating, Russian Thistle [6, 20]: 65
- Plant response rating, Russian Thistle [6, 21]: 75
- Plant response rating, Russian Thistle [6, 11]: 95
- Plant response rating, Russian Thistle [6, 12]: 100
- Plant response rating, Russian Thistle [6, 13]: 100
- Plant response rating, Groundsel [7, 16]: 65
- Plant response rating, Groundsel [7, 17]: 65
- Plant response rating, Groundsel [7, 18]: 65
- Plant response rating, Groundsel [7, 19]: 85
- Plant response rating, Groundsel [7, 21]: 0
- Plant response rating, Groundsel [7, 13]: 50

Structure (SMILES): CCOC(=O)c1nc(-c2ccc(Cl)cc2)nc(N)c1Cl [Compound 64, ethyl 6-amino-5-chloro-2-(4-chlorophenyl)-4-pyrimidinecarboxylate]
- Plant response rating, Horseweed [2, 22]: 60
- Plant response rating, Horseweed [2, 16]: 60
- Plant response rating, Horseweed [2, 17]: 60
- Plant response rating, Horseweed [2, 18]: 60
- Plant response rating, Horseweed [2, 23]: 0
- Plant response rating, Horseweed [2, 20]: 75
- Plant response rating, Horseweed [2, 21]: 95
- Plant response rating, Horseweed [2, 11]: 95
- Plant response rating, Russian Thistle [6, 23]: 0
- Plant response rating, Russian Thistle [6, 21]: 0
- Plant response rating, Russian Thistle [6, 11]: 0
- Plant response rating, Groundsel [7, 22]: 0
- Plant response rating, Groundsel [7, 16]: 0
- Plant response rating, Groundsel [7, 17]: 0
- Plant response rating, Groundsel [7, 18]: 0
- Plant response rating, Groundsel [7, 23]: 0
- Plant response rating, Groundsel [7, 20]: 0
- Plant response rating, Groundsel [7, 21]: 10
- Plant response rating, Groundsel [7, 11]: 40

Structure (SMILES): CCOC(=O)c1nc(C2CC2)nc(N)c1Cl [Compound 4, ethyl 6-amino-5-chloro-2-cyclopropyl-4-pyrimidinecarboxylate]
- Plant response rating, Horseweed [2, 11]: 100
- Plant response rating, Horseweed [2, 12]: 100
- Plant response rating, Horseweed [2, 13]: 100
- Plant response rating, Horseweed [2, 14]: 100
- Plant response rating, Russian Thistle [6, 12]: 100
- Plant response rating, Russian Thistle [6, 13]: 100
- Plant response rating, Russian Thistle [6, 14]: 100
- Plant response rating, Groundsel [7, 11]: 95
- Plant response rating, Groundsel [7, 12]: 95
- Plant response rating, Groundsel [7, 13]: 100
- Plant response rating, Groundsel [7, 14]: 100
- Plant response rating, Olive [8]: 50
- Plant response rating, Orange [9]: 75
- Plant response rating, Grape [10]: 100

Structure (SMILES): Nc1nc(C2CC2)nc(C(=O)[O-])c1Cl.[Na+] [Compound 77, 6-amino-5-chloro-2-cyclopropyl-4-pyrimidinecarboxylic acid monosodium salt]
- Plant response rating, Horseweed [2, 15]: 80
- Plant response rating, Horseweed [2, 16]: 40
- Plant response rating, Horseweed [2, 17]: 50
- Plant response rating, Horseweed [2, 18]: 75
- Plant response rating, Horseweed [2, 19]: 80
- Plant response rating, Horseweed [2, 20]: 70
- Plant response rating, Horseweed [2, 21]: 90
- Plant response rating, Horseweed [2, 11]: 100
- Plant response rating, Horseweed [2, 12]: 100
- Plant response rating, Horseweed [2, 13]: 100
- Plant response rating, Russian Thistle [6, 20]: 85
- Plant response rating, Russian Thistle [6, 11]: 100
- Plant response rating, Russian Thistle [6, 13]: 100
- Plant response rating, Groundsel [7, 15]: 100
- Plant response rating, Groundsel [7, 16]: 40
- Plant response rating, Groundsel [7, 17]: 75
- Plant response rating, Groundsel [7, 18]: 80
- Plant response rating, Groundsel [7, 19]: 95
- Plant response rating, Groundsel [7, 20]: 50
- Plant response rating, Groundsel [7, 21]: 60
- Plant response rating, Groundsel [7, 12]: 80
- Plant response rating, Groundsel [7, 13]: 100
